Assay results from patent US20180249709A1, “HERBICIDE COMPOSITIONS AND METHODS FOR CONTROLLING GROWTH OF PLANTS OF THE BUCKTHORN FAMILY” (priority 2016, published 2018).
Entries after “also recorded” stand apart in the source; their conditions may differ.

Assays:
Buckthorn seed radicles = test: Radicle elongation of germinated Buckthorn seeds over 7 days; format: in vivo; conditions: for radicle growth between treatments of various concentrations: MANOVA repeated measures
Procedure: From the seed germination study (above), the first five (5) germinated Buckthorn seeds from each group (same treatment, same site) were set aside for radicle elongation measurements (see FIG. 6). These five were placed together in new Petri plates between two new filter papers dosed with treatment (i.e. same filter setup & treatment as germination study). For each of the 75 germinated seeds (5×15 groups), the initial length of the emerged radicle was measured. The length of the radicle was then re-measured daily for a total of 7 days. […] Therefore, on Day 7 all radicles were also sacrificed and scanned on an Epson® flatbed scanner then analyzed off-label by WinRhizo™ software, which measured the full length as “Brother 1” of the inputted “root”. Using Microsoft Excel, a graph was created to show the average length of radicle 7 days after emergence with standard error, when measured by hand. WinRhizo Day 7 measurements were compared to hand-measured Day 7 measurements to check for accuracy. Another graph was created to show the average growth of the radicle over time. Statistics were done using JMP™ statistical software.

Buckthorn seeds = test: Seed germination of Buckthorn seeds on filter paper in Petri plates; format: in vivo
Procedure: Juglone was purchased from Sigma Aldrich and diluted in sterile water to a 10^−3 M stock solution for 24 hours at 40° C., then further diluted to obtain 10^−4, 10^−5 and 10^−6 M solutions. Seeds were previously collected from 3 different sites (Site 1: Iroquois Shoreline Woods Park in Oakville, Ontario, Canada; Site 2: Ignatius Jesuit Centre in Guelph, Ontario, Canada, and Site 3: Snyder Flats Conservation Area in Bloomingdale, Ontario, Canada) and then placed into cold stratification. For this experiment, seeds were removed from 40 day cold stratification and surface sterilization was done for 30 s in 3% hydrogen peroxide followed by two one minute sterile water rinses. Sheets of 90 mm filter paper were placed on the bottom of Petri plates, followed by 15 seeds, and then topped with another sheet of filter paper. A pipette then dispensed 2 ml of treatment or control onto each plate directly onto the top filter paper, thereby wetting the seeds and bottom filter paper as well. Five reps (plates) were done for each site at each treatment. Plates were then placed into Ziploc bags (to maintain humidity) and kept at 24° C. in the dark. Plates were checked every day for germination (i.e. emergence of the radicle). The number of germinated seeds per plate was recorded daily. Using Microsoft Excel, a graph was created to show the average number of germinated seeds per group with standard error. Statistics were done using JMP statistical software.

O=C1C=CC(=O)c2c(O)cccc21 [Juglone, 5-hydroxy-1,4-naphthalenedione]
colour / appearance of radicles vs control (Buckthorn seed radicles; 10^-3 M Juglone, Day 7): darker brown/black; also recorded: possible damaging effect | radicle elongation (Buckthorn seed radicles; 10^-3 M Juglone, Ignatius Jesuit Centre site, MANOVA, hand-measured): limited radicle elongation significantly | growth of radicles vs controls (Buckthorn seed radicles; 10^-3 M Juglone, all three sites, seven days, T-tests): significantly reduced growth; also recorded: significantly reduced radicle elongation | growth of radicles vs controls (Buckthorn seed radicles; 10^-4 M Juglone, Iroquois Shoreline Woods Park site and Snyder Flats Conservation Area site only, T-tests): significantly reduced growth | radicle growth among the treatments (net WinRhizo values) (Buckthorn seed radicles; ANOVA 2-way with replication, p=0.0005): significant difference in growth | radicle growth between treatments of various concentrations (Buckthorn seed radicles; Ignatius Jesuit Centre site, hand-measured, F(4,19)=0.73, p=0.0264): significant difference | radicle growth between treatments of various concentrations (Buckthorn seed radicles; Iroquois Shoreline Woods Park site, hand-measured, F(4,20)=0.38, p=0.1485): no significant difference | radicle growth between treatments of various concentrations (Buckthorn seed radicles; Snyder Flats Conservation Area site, hand-measured, F(4,19)=0.17, p=0.5339): no significant difference | growth of radicles vs controls (Buckthorn seed radicles; more dilute concentrations (than 10^-4 M), seed from any site): Growth reduction was not achieved | percentage of Buckthorn seeds that germinated, treatment vs control (Buckthorn seeds; 10^-5 M Juglone): consistently significantly lower | percentage of Buckthorn seeds that germinated, treatment vs control (Buckthorn seeds; 10^-6 M Juglone): consistently significantly lower; also recorded: significantly effective in preventing seed germination | overall effect on germination, difference between the treatments (Buckthorn seeds; Day 12, Least Squares Model, control and 10^-3 to 10^-6 M Juglone, F(4,64)=6.2, p=0.003): significant difference | percentage of Buckthorn seeds that germinated, trend with concentration (Buckthorn seeds; Juglone concentration increased above 10^-5 M): appeared to increase
